What was measured:
Shay rats = assay: Anti-ulcerogenic action (protective action on the stomach), Shay rats: pylorus ligature plus oral acetylsalicylic acid, ulcer index; format: in vivo; conditions: for TQ LD50/ED50 (therapeutic quotient): LD50 i.v. mice / ED50 p.o. rats; for ED50: Rattus norvegicus, Shay rats, oral 1 hour before pylorus ligature, dose which reduces the ulcer index by 50% compared with the control group, read-out: Protective action on the stomach ED50 administered perorally to rats; for dose dependence of the anti-ulcerogenic action (dose/action curve): Shay model
Method: ED50 = the dose which reduces the ulcer index for the group treated
by 50% compared with the control group
The anti-ulcerogenic action is tested by a method using the so-called Shay rats:
(§1) Ulcers are provoked in rats which have been starved for 24 hours (female rats, 180 to 200 g, 4 animals in a cage with a high grille) by means of a pylorus ligature (under anaesthesia with diethyl ether) and oral administration of 100 mg/10 ml/kg of acetylsalicylic acid. The substances to be tested are administered orally (10 ml/kg) 1 hour before the pylorus ligature. The closure of the wound is effected by means of Michel's clips. The animals are killed 4 hours afterwards under ether anaesthesia by dislocating the atlas, and the stomach is cut out. The stomach is opened longitudinally and is fixed on a cork slab, the quantity of gastric juice secreted (volume) having been determined beforehand; the number and size (=diameter) of ulcers present are determined by means of a stereomicroscope at a 10-fold magnification. The product of the degree of severity (in accordance with the following rating scale) and the number of the ulcers is used as an individual ulcer index.
ulcer diameter 0.1-1.4 mm 1
The reduction in the average ulcer index in each group treated compared with that of the control group (=100%) is used as a measure of the anti-ulcerogenic effect. The ED50 indicates the dose which reduces the average ulcer index by 50%.

stomach secretion = assay: Inhibition of stomach secretion (gastric juice volume) in rats; format: in vivo, rat; conditions: 4 hours after administration of the antiulcerogenic ED50
Method: *% inhibition = inhibition (in %) of stomach secretion 4 hours after
administration of the antiulcerogenic ED50
as §1

[1] = Determination of toxicity, intravenous LD50 in mice; conditions: mouse, in vivo, female NMRI mice, 7 days observation, 5 animals per dose, read-out: Toxicity LD50 administered intravenously to mice
Method: LD50 = the dose at which 50% of the animals die
The toxicity investigations are carried out on female NMRI mice (body weight 22 to 26 g). The animals (5 animals per dose) receive feed and water ad lib. Various doses of the substances are administered intravenously (duration of injection 1 minute). The observation period is 7 days. The LD50 (the dose at which 50% of the animals die) is determined by means of a linear regression.

## CC1(C)[C@@H](OC(=O)CCC(=O)O)CC[C@]2(C)[C@H]3C(=O)C=C4[C@@H]5C[C@@](C)(C(=O)O)CC[C@]5(C)CC[C@@]4(C)[C@]3(C)CC[C@@H]12 [Compound 1, carbenoxolone, reference compound]
Shay rats
  TQ LD50/ED50 (therapeutic quotient): 4.1
  ED50: ~70 mg/kg
Shay rats; even at 300 mg/kg
  increase in the anti-ulcerogenic action above the ED50: not possible to achieve any substantial increase in the anti-ulcerogenic action
Shay rats; rats
  dose dependence of the anti-ulcerogenic action (dose/action curve): flattens out very considerably
Stomach secretion
  % inhibition of stomach secretion in rats: 7%

## Cc1nn(C)c2c1N(C(=O)CN1CCN(C)CC1)c1ccccc1NC2=O [Compound 2, 1,3-dimethyl-4-[(4-methylpiperazin-1-yl)acetyl]-1,4,9,10-tetrahydropyrazolo[4,3-b][1,5]benzodiazepin-10-one]
Shay rats
  TQ LD50/ED50 (therapeutic quotient): 84.0
  ED50: 2.5 mg/kg
Shay rats; rats, 30 mg/kg
  inhibitory effect (anti-ulcerogenic action): up to 95%
Shay rats; rats
  dose dependence of the anti-ulcerogenic action (dose/action curve): depends strictly on the dose
[1]
  LD50 at 168 h: 210 mg/kg
Stomach secretion
  % inhibition of stomach secretion in rats: 20%

Source: patent US4317823A, “Pyrazolobenzodiazepinones, their intermediates, their compositions and their use” (Byk Gulden Lomberg Chemische Fabrik GmbH, priority 1979, dated 1982)
